Data reported in article PMC7072302 (Biomolecules, 2020).

Target: T1, tyrosinase (Agaricus bisporus, UniProt C7FF04)
T1 construct: purchased Sigma-Aldrich T3824
Experiment: Tyrosinase enzymatic assay (L-tyrosine substrate, absorbance at 475 nm)
Type: biochemical
Conditions: for Ki: Dixon plot, read-out: Ki (inhibition constant); for inhibition at 100 µM: compound concentration 100 μM, L-tyrosine substrate, triplicate, mean ± SD, read-out: Inhibition Rate (%) at 100 μM; for IC50: concentrations 3.1 to 100 μM, mean ± SD (n = 3)

T1 sequence (C7FF04 1-392 limits assumed): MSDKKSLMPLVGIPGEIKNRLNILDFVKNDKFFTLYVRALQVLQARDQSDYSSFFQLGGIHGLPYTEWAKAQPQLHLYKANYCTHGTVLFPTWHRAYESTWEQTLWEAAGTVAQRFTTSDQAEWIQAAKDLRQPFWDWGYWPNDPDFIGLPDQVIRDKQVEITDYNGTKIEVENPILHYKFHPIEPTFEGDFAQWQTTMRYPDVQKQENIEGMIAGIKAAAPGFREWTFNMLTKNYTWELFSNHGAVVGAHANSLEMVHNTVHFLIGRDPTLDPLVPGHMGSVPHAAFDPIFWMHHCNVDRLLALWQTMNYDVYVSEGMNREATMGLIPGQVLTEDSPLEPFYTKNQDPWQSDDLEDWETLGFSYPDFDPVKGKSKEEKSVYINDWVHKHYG

Row | Ki [µM] | inhibition at 100 µM [%] | IC50 [µM] | SMILES
1 | 11.4 | > 80 | 12.4 ± 0.8 | COc1cc(C(=O)OCCCCNC(=N)N)cc(OC)c1O [Compound 2, leonurine]
2 |  | 11.6 ± 0.1 |  | COc1cc(C(=O)O)cc(OC)c1O [Compound 3, syringic acid]
3 | 1.6 | > 80 | 7.4 ± 0.4 | COc1cc(C(=O)OCCCCN=C(N)N)cc(OC)c1OC [Compound 1, 10-methoxy-leonurine]
4 |  | 1.8 ± 5.9 |  | O=c1c(O[C@@H]2O[C@H](CO)[C@@H](O)[C@H](O)[C@H]2O)c(-c2ccc(O)c(O)c2)oc2cc(O)cc(O)c12 [Compound 4, isoquercitrin]
